Source: US20190086391A1, “METHOD AND SYSTEM FOR CONTINUOUS BIOSENSING” (Yissum Research Development Company of the Hebrew …, priority 2016, published 2019)
Values joined by “and” are separate entries in the source; they are usually repeats but may differ in a detail not shown here. Identical values can stand only once.

Legend:
Format in all cases: cell-based, human
HepG2/C3A cells [1] = assay: Seahorse glutamine oxidation assay; details: 50 μM, static culture
Protocol: HepG2/C3A cells were plated in gelatin-coated XFp cell culture miniplates and cultured for 24 hours. Subsequently, cultures were treated with medium containing 50 μM troglitazone for 6 hours, 50 μM rotenone for 3 hours, or vehicle control prior to initiation of assay. Glutamine oxidation assay was conducted per manufacturer instructions. Briefly, cells were incubated in unbuffered XF Base Medium supplemented with 2 mM Glutamine, 1 mM sodium pyruvate, and 10 mM glucose (pH 7.4) for 1 hour at 37° C. in a non-CO2 incubator. Glutamine oxidation was profiled by successive injections of 3 μM BPTES, an allosteric inhibitor of glutaminase (GLS1), and a mixture of 4 μM etomoxir, a carnitine palmitoyl-transferase 1A (CPT1A) inhibitor and 2 μM UK5099 a mitochondrial pyruvate carrier inhibitor, blocking fatty acid oxidation and […], respectively. The decrease in baseline OCR due to BPTES treatment was defined as the rate of glutaminolysis. Data are presented normalized to 10^6 cells as determined by Hoechst DNA content assay.

HepG2/C3A cells [2] = assay: Real-time amperometric glucose and lactate measurements in bioreactor outflow; details: for total glucose uptake rate: 50 μM treated cells
Protocol: Amperometric glucose and lactate sensors were purchased from BioSensor Technology (Berlin, Germany) and embedded in a CNC-fabricated PMMA flow-chamber with an inner volume of 26 μl. The sensors are based on the enzymatic reactions of glucose oxidase, with a linear range of 0.5 mM to 30 mM, and lactate oxidase, with a linear range of 0.5 mM to 20 mM. Both sensors produce H2O2 in amounts proportional to the measured metabolite, which is detected with platinum electrodes under polarized condition. The microfluidic controller (13) was programmed to open a microfluidic valve every hour, allowing a 40 μl medium sample to flow through the switchboard and into the sensors unit. Amperometric measurement lasted 200 seconds and was followed by automated perfusion of PBS washing solution, CAL 4+M calibration buffer (Eschweiler, Germany), and 4 seconds of air bubble acting as a diffusion barrier between samples. Reading was carried out on EmStat3 OEM embedded potentiostat (PalmSens, Netherlands) connected to the central computer.
Glucose uptake, oxygen uptake and lactate production rates were measured by calculating the change in metabolite concentration between the bioreactor in- and outflow, as function of perfusion rate and cell number as described above. Metabolic rates were calculated assuming negligible contribution to oxygen uptake by fatty acid oxidation and enzymatic activity. Low level of lipids in the culture medium ensured that fatty acid uptake was 50-fold lower than glucose while glutamine contribution to the Krebs cycle was minor (results).

HepG2/C3A cells [3] = assay: Seahorse Mitochondrial Stress Test (OCR, ECAR), static culture; details: 50 μM; for decrease in maximal mitochondrial capacity: after uncoupler injection
Protocol: HepG2/C3A cells were plated in gelatin-coated SeaHorse XFp cell culture miniplates (Seahorse Bioscience, USA) and cultured for 24 hours. Subsequently, cultures were treated with medium containing 50 μM troglitazone for 6 hours, 50 μM rotenone for 3 hours, or vehicle control prior to initiation of assay. Mitochondrial Stress Test assay was conducted per manufacturer instructions (29). Briefly, cells were incubated in unbuffered XF Base Medium supplemented with 2 mM glutamine, 1 mM sodium pyruvate, and 10 mM glucose (pH 7.4) for 1 hour at 37° C. in a non-CO2 incubator. Basal oxygen consumption rate (OCR) was measured for 30 min, followed by injection of 1 μM oligomycin, a mitochondrial […] inhibitor that completely blocks oxidative phosphorylation. The decrease in OCR due to oligomycin treatment is defined as oxidative phosphorylation rate. 1 μM carbonyl cyanide-4 (trifluoromethoxy) phenylhydrazone (FCCP), an uncoupling agent, is added at 60 min to measure maximal mitochondrial activity followed by complete inhibition at 90 min using a mixture of 0.5 μM antimycin A and rotenone, mitochondrial Complex III and Complex I inhibitors. Basal extracellular acidification rates (ECAR) was measured for 30 min, in the presence of 10 mM glucose, followed by injection of 1 μM oligomycin. The increase in ECAR due to oligomycin treatment was defined as glycolytic capacity. Data are presented normalized to […] cells as determined by Hoechst DNA content assay.

[4] = 50 μM, after 6 hours of exposure
[5] = 50 μM, within the first 2 hours
[6] = surrogate of lactate production

SMILES | increase in glutamine oxidation rate (glutaminolysis) (HepG2/C3A cells [1]) | increase in glutaminolysis (HepG2/C3A cells [1]) | exposure time after which the metabolic shift from oxidative phosphorylation to glycolysis occurred (HepG2/C3A cells [2]; 50 μM) | total glucose uptake rate (HepG2/C3A cells [2]) | lactate over glucose ratio (HepG2/C3A cells [2]; 50 μM, 6 hours after exposure) | additional drop in glucose uptake (HepG2/C3A cells [2]; [4]) | change in lactate production (HepG2/C3A cells [2]; [4]) | lactate over glucose ratio (HepG2/C3A cells [2]; 50 μM, within 3 hours after exposure) | drop in glucose uptake (HepG2/C3A cells [2]; [5]) | drop in lactate production (HepG2/C3A cells [2]; [5]) | lactate over glucose ratio (HepG2/C3A cells [2]; gradual switch to compensatory mechanisms) | decrease in (mitochondrial) basal metabolic rate (HepG2/C3A cells [3]; static culture) | decrease in oxidative phosphorylation (HepG2/C3A cells [3]; static culture) | glycolytic capacity change (HepG2/C3A cells [3]; static culture) | decrease in maximal mitochondrial capacity (HepG2/C3A cells [3]; static culture) | decrease in extracellular acidification rate (ECAR) (HepG2/C3A cells [3]; [6]) | increase in lactate production (HepG2/C3A cells [2]; 50 μM, within 4 to 5 hours) | increase in extracellular acidification rate (ECAR) (HepG2/C3A cells [3]; [6])
C=C(C)[C@H]1Cc2c(ccc3c2O[C@@H]2COc4cc(OC)c(OC)cc4[C@@H]2C3=O)O1 [rotenone] | 382±115% | 4±1 folds | 3 h | 1.0 nmol/min/10^6 | 6.1 | 65% | no change | 2.6 | 59% | 35% | above 2 | 83% and 83±5% | 85±5% and 85±8% | relatively unchanged | 87% | 21±12% |  | 
Cc1c(C)c2c(c(C)c1O)CCC(C)(COc1ccc(CC3SC(=O)NC3=O)cc1)O2 (centres unmarked) [troglitazone] | 26±30% |  |  | 2.5 nmol/min/10^6 | 1.8 |  |  |  |  |  |  | 20±6% |  |  | 22±9% |  | 51% | 43±43%
